Source: US20040110676A1, “Methods for modulating cell survival” (priority 2000, published 2004)

What was measured:
[1] = Retrospective analysis of tumor development in transgenic mouse colony; assay type: in vivo, mice
Experimental: A retrospective analysis was performed to examine the total numbers of mice (identified by the animal colony health staff) that developed tumors in the colony of transgenic mice. The records of all mice diagnosed with tumors over a 6 month period were examined, in a group of mice over-expressing wild-type human htt and their wild-type littermates. […] The average age of tumor development was younger in the transgenic group 13.8 months compared to 17.1 months for wild-type littermates. The majority of identified tumors in male mice were testicular tumors.

[2] = Body weight of transgenic mice over-expressing wild-type htt; assay type: in vivo; conditions: transgenic mice aged 5-8 months over-expressing wild-type htt
From the text: One of the roles of the pro-survival (e.g. anti-apoptotic) function of wild-type htt may be in control of tissue mass and cellular proliferation. Increased levels of wild-type htt expression can lead to increased body tissue mass and may predispose mice to the development of tumors. The effect of over-expression of human wild-type htt on the body weight of transgenic mice was compared to wild-type mice (FIG. 16). […] The average body weight was approximately 25% greater for the transgenic mice compared to wild-type. […] Over production of cells in the body can have a variety of unwanted outcomes including but not limited to obesity or cancer. This may be due to decreased naturally occurring apoptosis or increased cellular proliferation.

NIH/3T3 cells = assay: Anoikis assay on poly-HEMA coated plates, annexin-V-FITC/PI; assay type: cell-based, murine; conditions: detached, 8 hours, p<0.05 vs parental cells
From the text: Using the murine transformed fibroblast cell line, NIH/3T3, the anoikis-resistance properties of wild type htt (15 glutamine repeat) and mutant htt (138 glutamine repeat) were investigated. NIH/3T3 cells require a matrix for attachment in order to experience optimum growing conditions. When detached from the supporting matrix, they experience a high rate of apoptosis. NIH/3T3 cells were transfected with a mammalian expression vector containing wild type htt (15 glutamine repeat) or mutant htt (138 glutamine repeat). Untransfected and transfected NIH/3T3 cells were grown on cell culture plates, whose plastic surface served as a substrate for matrix deposition and subsequent cellular attachment, or on poly-HEMA coated cell culture plates. The nonionic nature of poly-HEMA inhibits both matrix deposition and subsequent cell attachment. […] The cells were cultured in DMEM with 10% serum for 8 hours under attached conditions on plastic plates or under detached conditions on poly-HEMA-coated plastic plates. Cells were harvested, counted and viability was assessed via annexin-V-FITC and propidium iodide (PI) staining.

NIH3T3 cells [3] = assay: Cellular proliferation after transient transfection, colorometric assay of cell number; assay type: cell-based
Experimental: The ability of NIH3T3 cells to overcome contact inhibition when transfected with different gene constructs has been used for many years to assess oncogenic potential of certain genes and to identify potential oncogenes. Cellular proliferation was assessed following transient transfections of NIH3T3 cells using a standardised colorometric assay of cell number. The effect of htt on cellular growth was examined and compared to the effect of a known oncogene, ras (FIG. 17). NIH3T3 cells transfected with htt constructs show a significant increase in cellular proliferation (5-6 fold increase in proliferation compared to control vector) that is similar to the effect of ras.

NIH3T3 cells [4] = assay: Soft agar colony formation and transformation of retrovirally transfected cells; assay type: cell-based
Experimental: Retroviral introduction of the S421 mutants into NIH3T3 cells was used to examine the oncogenic (proliferative) effects of phosphorylation on serine 421. […] To test the oncogenic potential of htt and to examine the effect of phosphorylation of htt at S421 on cell proliferation, a soft agar assay was conducted in NIH3T3 cells (FIG. 21). […] Mutant htt (HD138) transfection leads to no (0%) soft agar colonies.

[5] = system: DEVD-ase activity (caspase-2, -3, -7); assay: DEVD-ase (caspase) activity after kainic acid-induced seizures; assay type: in vivo, mice; conditions: 8 hours after KA-induced seizures
Experimental: One week following KA injection, brains were removed from one group of the mice and immediately frozen in isopentene on dry ice. Serial 30 μm coronal cryostat sections were cut through the entire hippocampus. After every fifth section, two sections were removed for quantitative analysis and fixed in 3% paraformaldehyde for 30 minutes in preparation for histochemical staining. Degenerating neurons were identified in hippocampal sections by Fluoro-Jade™ histochemistry (Histo-Chem Inc.), silver staining (FD Neurotechnologies) and by TUNEL™ (Boehringer Mannheim). Fluoro-Jade™ is a fluorescent stain that labels degenerating neurons in fixed brain sections. The total number of degenerated hippocampal neurons labeled with Fluoro-Jade™ was recorded from the CA1, CA3, and total hippocampus regions of each section selected for quantitative analysis. Slide-mounted sections were viewed with a Zeiss (Axiovert) fluorescent microscope, digital photomicrographs were captured with a cooled CCD camera (Princeton), and degenerating hippocampal neurons manually counted in a blinded fashion. […] Caspase activity was measured in homogenized hippocampal and cerebellar samples using the fluorogenic substrate acetylated DEVD aminofluorocoumarin. DEVD-ase activity was standardized to protein content as determined by standard Lowry analysis.

hippocampal neurons = assay: Kainic acid-induced seizure neurodegeneration in YAC transgenic mice; assay type: in vivo
Experimental: Yeast artificial chromosome (YAC) transgenic mice were generated that over-express wild-type human htt at 2-3 times the levels of endogenous htt in wild-type mice (FVB/NJ) (Hodgson et al.(1996) Hum. Mol. Genet. 5, 1875-1885). Fifteen of these transgenic and 23 control FVB/NJ mice 4-8 months of age each received a single intraperitoneal injection of 25 mg/kg kainic acid (KA) or an equal volume of vehicle (PBS). Intraperitoneal injections of kainic acid injections cause prolonged seizures in mice, and each mouse was observed continuously for two hours following injection. The occurrence, severity, and duration of seizures was recorded.
One week following KA injection, brains were removed from one group of the mice and immediately frozen in isopentene on dry ice. Serial 30 μm coronal cryostat sections were cut through the entire hippocampus. After every fifth section, two sections were removed for quantitative analysis and fixed in 3% paraformaldehyde for 30 minutes in preparation for histochemical staining. Degenerating neurons were identified in hippocampal sections by Fluoro-Jade™ histochemistry (Histo-Chem Inc.), silver staining (FD Neurotechnologies) and by TUNEL™ (Boehringer Mannheim). Fluoro-Jade™ is a fluorescent stain that labels degenerating neurons in fixed brain sections. The total number of degenerated hippocampal neurons labeled with Fluoro-Jade™ was recorded from the CA1, CA3, and total hippocampus regions of each section selected for quantitative analysis. Slide-mounted sections were viewed with a Zeiss (Axiovert) fluorescent microscope, digital photomicrographs were captured with a cooled CCD camera (Princeton), and degenerating hippocampal neurons manually counted in a blinded fashion. To assess the role of caspase activation in this process, the hippocampus and cerebellum were removed from a second group of animals 8 hours following KA-induced seizures. Caspase activity was measured in homogenized hippocampal and cerebellar samples using the fluorogenic substrate acetylated DEVD aminofluorocoumarin. DEVD-ase activity was standardized to protein content as determined by standard Lowry analysis.

## wild-type htt: wild-type human huntingtin protein, polyglutamine tract of less than 35 glutamines; over-expressed in YAC line 212 mice or transfected (15 glutamine repeat)
[1]; 6 month period, 38/45
  mice identified with tumors that were transgenic: 84.5%
[1]; transgenic group, wild-type littermates 17.1 months
  average age of tumor development: 13.8 months
[2]
  average body weight greater than wild-type mice: approximately 25%
NIH/3T3 cells
  protection from cell death induced by anoikis: Protection from cell death induced by anoikis
NIH3T3 cells [3]
  increase in proliferation compared to control vector: 5-6 fold
NIH3T3 cells [4]; retrovirally transfected NIH3T3 cells, control cells about 5%
  soft agar colonies: about 15%
NIH3T3 cells [4]; soft agar, NIH3T3 cells
  increase in number of colonies over control cells: 3 fold
NIH3T3 cells [4]; stable retroviral transfection of NIH3T3 cells
  morphologic transformation: malignant, morphologic transformation
[5]; cerebellum, wild-type mice 8.68 +/−1.67, no significant difference
  cerebellar caspase activation (DEVD-ase activity): 13.66 +/−2.32
[5]; hippocampus, wild-type mice 20.8 +/−1.77, P=0.02
  hippocampal caspase activation (DEVD-ase activity): 14.5 +/−1.49
Hippocampal neurons; CA1 region, 25 mg/kg KA i.p., one week, control 2360
  average number of degenerating neurons per animal (Fluoro-Jade): 3
Hippocampal neurons; CA3 region, 25 mg/kg KA i.p., one week, control 2003
  average number of degenerating neurons per animal (Fluoro-Jade): 79
Hippocampal neurons; after KA-induced seizures
  fold less degenerating hippocampal neurons than control animals: approximately 50 fold
Hippocampal neurons; after KA-induced seizures, transgenic mice
  TUNEL labeled apoptotic hippocampal neurons: few apoptotic hippocampal neurons
Hippocampal neurons; hippocampal sections after KA-induced seizures, transgenic vs wild-type mice
  argyrophyllic labelling of neuronal soma (silver staining): dramatically reduced
Hippocampal neurons; total hippocampus, mice expressing 2-3 times endogenous htt levels, 25 mg/kg KA i.p., one week, control 4362
  average number of degenerating hippocampal neurons per animal (Fluoro-Jade): 81
